Measured values published in US20150143553A1, “Methods And Compositions Comprising A Drosophila Model Of Amyotrophic Lateral Sclerosis” (priority 2013, published 2015).
Counter-ions that a name gives are not always drawn.

Assays:
[1] = tested on: Drosophila larvae expressing G298S TDP-43 in motor neurons; experiment: Drug screen: rescue of lethality caused by G298S TDP-43 expression in motor neurons (D42 Gal4); format: in vivo
Text: (§1) […] Larvae expressing TDP-43 (wild type or mutant, as shown) are raised on drug containing food.
(§2) […] Larvae expressing TDP-43 (wt or mutant) were raised on drug containing food.
Using a Drosophila model of ALS based on TDP-43 that recapitulates several aspects of the disease pathophysiology (33, 35), a drug screen aimed at identifying FDA approved compounds with neuroprotective potential in vivo were designed (FIG. 37A). […] This phenotype was used to screen for drug candidates with therapeutic potential as determined by their ability to rescue pupal lethality and produce viable adults with extended wings (FIG. 37A).
Larvae expressing TDP-43 in motor neurons (D42>TDP-43) were raised on fly food containing different amounts of drug (1, 10 and 25 μM, see Materials and Methods for details) or Dimethyl Sulfoxide (DMSO) as vehicle control (FIG. 37B, C).
(§3) UAS TDP-43 males were crossed with D42-Gal4 female virgins on fly food containing either DMSO or pioglitazone. For DMSO controls, the same volume of DMSO as the corresponding drug concentration was added. Bromophenol blue was added to a final concentration of approximately 0.02% to ensure homogeneity. Crosses were made on drug food with 3 female virgins and 2 males in each vial, and were maintained at 25° C. unless noted. The parents were discarded after 5-7 days then the vials were screened for adult progeny with straight wings from day 14 to day 25. All adults were screened for TDP-43 expression by visualizing the YFP tag. Total number of pupae was counted on day 25. Percent survival was calculated using the formula (total number of straight-winged adults/total number of pupae)×100. All experiments were performed in triplicate.

[2] = tested on: Drosophila larvae expressing wild-type TDP-43 in motor neurons; experiment: Drug screen: rescue of lethality caused by wild-type TDP-43 expression in motor neurons (D42 Gal4); format: in vivo; settings: for Preliminary rescue result: adults with normal wings: transgene WT2
Text: as §1, §2
Using a Drosophila model of ALS based on TDP-43 that recapitulates several aspects of the disease pathophysiology (33, 35), a drug screen aimed at identifying FDA approved compounds with neuroprotective potential in vivo were designed (FIG. 37A). […] This phenotype was used to screen for drug candidates with therapeutic potential as determined by their ability to rescue pupal lethality and produce viable adults with extended wings (FIG. 37A). […]
as §3

[3] = transgene G298S, 50 μM in fly food
[4] = transgene G298S, 30 μM in fly food

## NCCCNCCSP(=O)(O)O [Amifostine]
[1]; [3]
  Preliminary rescue result: adults with normal wings: 1 Adult Normal Wings Adults

## Pyrantel Tartrate
[1]; [3]
  Preliminary rescue result: adults with normal wings: 1 Adult Normal Wings Adults

## CN(Cc1cc(Br)cc(Br)c1N)C1CCCCC1.Cl [Romhexine Hydrochloride]
[1]; [4]
  Preliminary rescue result: adults with normal wings: 1/2 Adult Normal Wings

## C1N2CN3CN1CN(C2)C3 [Methenamine]
[1]; [4]
  Preliminary rescue result: adults with normal wings: 1 Adults
[2]; 30 μM in fly food
  Preliminary rescue result: adults with normal wings: 2 Adults

## CCCC(CCC)C(=O)O [Valproic Acid]
[1]; [4]
  Preliminary rescue result: adults with normal wings: 1 Adults
[2]; 30 μM in fly food
  Preliminary rescue result: adults with normal wings: 2 Adults

## O=C(O)c1ccccc1Nc1cccc(C(F)(F)F)c1 [Flufenamic Acid]
[1]; [3]
  Preliminary rescue result: adults with normal wings: 1 Adult Normal Wings Adults

## CN(C)CCC(c1ccccc1)c1ccccn1 (centres unmarked) [Pheniramine Maleate]
[1]; [3]
  Preliminary rescue result: adults with normal wings: 1 Adult Normal Wings Adults

## CCN(CC)C(=O)/C(C#N)=C/c1cc(O)c(O)c([N+](=O)[O-])c1 [Entacapone]
[1]; [3]
  Preliminary rescue result: adults with normal wings: 5 Adult Normal Wings Adults

## c1ccc(-c2ccc(C(c3ccccc3)n3ccnc3)cc2)cc1 (centres unmarked) [Bifonazole]
[1]; transgene G298S4, 30 μM in fly food
  Preliminary rescue result: adults with normal wings: 1 Adult Normal Wings Adults

## O=c1n(CCCN2CCN(c3cccc(Cl)c3)CC2)nc2ccccn12 [Trazodone]
[1]; [3]
  Preliminary rescue result: adults with normal wings: 1 Adult Normal Wings Adults

## CCOC(=O)C1=C(C)NC(C)=C(C(=O)OCC)C1c1ccccc1/C=C/C(=O)OC(C)(C)C [Lacidipine]
[1]; [3]
  Preliminary rescue result: adults with normal wings: 7 Adults
[2]; 50 μM in fly food
  Preliminary rescue result: adults with normal wings: 3 Adults

## Cn1c([N+](=O)[O-])cnc1COC(N)=O [Ronidazole]
[1]; [4]
  Preliminary rescue result: adults with normal wings: 1 Adult Normal Wings Adults

## Nc1ccn([C@@H]2CS[C@H](CO)O2)c(=O)n1 [Lamivudine]
[1]; [3]
  Preliminary rescue result: adults with normal wings: 2 Adults Normal Wings

## C[C@H](CCC(=O)O)[C@H]1CC[C@H]2[C@@H]3[C@H](O)C[C@@H]4C[C@H](O)CC[C@]4(C)[C@H]3CC[C@]12C [Chenodiol]
[1]; [3]
  Preliminary rescue result: adults with normal wings: 1 Adult Normal Wings Adults

## CCC1(c2cccc(O)c2)CCCCN(C)C1 (centres unmarked) [Meptazinol Hydrochloride]
[1]; [4]
  Preliminary rescue result: adults with normal wings: 1 Adult Normal Wing Adults

## COc1ccc(C(CN(C)C)C2(O)CCCCC2)cc1 (centres unmarked) [Venlafaxine]
[1]; [3]
  Preliminary rescue result: adults with normal wings: 1 Adult Normal Wings Adults

## C[N+]1(C)CCCC(OC(=O)C(O)(c2ccccc2)c2ccccc2)C1 (centres unmarked) [Mepenzolate Bromide]
[1]; [3]
  Preliminary rescue result: adults with normal wings: 2 Adult Normal Wings Adults

## Nc1nc(NC2CC2)c2ncn([C@H]3C=C[C@@H](CO)C3)c2n1 [Abacavir Sulfate]
[1]; [4]
  Preliminary rescue result: adults with normal wings: 1 Adult Normal Wings Adults

## CCn1nc(C(=O)O)c(=O)c2cc3c(cc21)OCO3 [Cinoxacin]
[1]; [4]
  Preliminary rescue result: adults with normal wings: 1 Adult Normal Wings Adults

## CCCCc1ccc2[nH]c(NC(=O)OC)nc2c1 [Parbendazole]
[2]; 30 μM in fly food
  Preliminary rescue result: adults with normal wings: 2/1

## CN(C)CCC=C1c2ccccc2CCc2ccccc21.Cl [Amitryptiline Hydrochloride]
[1]; [3]
  Preliminary rescue result: adults with normal wings: 1 Adult Normal Wings Adults

## CN(C)CCCO[C@@H]1[C@H]2OC(C)(C)O[C@H]2O[C@@H]1[C@H](O)CO [Amiprilose HCl]
[2]; 30 μM in fly food
  Preliminary rescue result: adults with normal wings: 1 Adult Normal Wings Adults

## CN(C)CC/C=C1/c2ccccc2Sc2ccc(Cl)cc21 [Chlorprothixene]
[2]; 50 μM in fly food
  Preliminary rescue result: adults with normal wings: 3 Adults Normal Wings

## CCn1cc(C(=O)O)c(=O)c2cc(F)c(N3CCNCC3)nc21 [Enoxacin]
[2]; 50 μM in fly food
  Preliminary rescue result: adults with normal wings: 3 Adult Normal Wings Adults

## CN(C)C(=N)N=C(N)N [Metformin]
[2]; Wild-type TDP-43, 25 μM, out of 15-20 pupae
  Rescue Effect (out of 15-20 pupae) (drug conc.): 2 adults

## CN1CCN(c2c(F)cc3c(=O)c(C(=O)O)cn4c3c2SCC4)CC1 [Rufloxacin]
[2]; 30 μM in fly food
  Preliminary rescue result: adults with normal wings: 1 Adult Normal Wings Adults

## Cc1onc(-c2c(Cl)cccc2Cl)c1C(=O)N[C@@H]1C(=O)N2[C@@H]1SC(C)(C)[C@@H]2C(=O)O [Dicloxacillin Sodium Salt]
[2]; 50 μM in fly food
  Preliminary rescue result: adults with normal wings: 1 Adult Normal Wings Adults

## Cc1ccccc1C(OCCN(C)C)c1ccccc1 (centres unmarked) [Orphenadrine]
[1]; [3]
  Preliminary rescue result: adults with normal wings: 1 Adult Normal Wings Adults

## Cc1ccc(-c2cc(C(F)(F)F)nn2-c2ccc(S(N)(=O)=O)cc2)cc1 [Celecoxib]
[2]; 50 μM in fly food
  Preliminary rescue result: adults with normal wings: 1 Adult Normal Wings Adults

## CCCCOc1cc(C(=O)OCCN(CC)CC)ccc1N [Benoxinate Hydrochloride]
[2]; 50 μM in fly food
  Preliminary rescue result: adults with normal wings: 1 Adult Normal Wings Adults

## O=C(NCCNCC(O)COc1ccc(O)cc1)N1CCOCC1.O=C(NCCNCC(O)COc1ccc(O)cc1)N1CCOCC1.O=C(O)/C=C/C(=O)O (centres unmarked) [Xamoterol HemifiμMarate]
[1]; [4]
  Preliminary rescue result: adults with normal wings: 1 Adult Normal Wing Adults

## NS(=O)(=O)c1cc(Cl)c(Cl)c(S(N)(=O)=O)c1 [Dichlorphenamide]
[2]; 30 μM in fly food
  Preliminary rescue result: adults with normal wings: 2 Adult Normal Wings Adults

## CCC(=O)OCC(=O)[C@@]1(OC(=O)CC)[C@H](C)C[C@H]2[C@H]3[C@H]([C@@H](O)C[C@@]21C)[C@@]1(C)C=CC(=O)C=C1C[C@H]3Cl [Alclometasone Dipropionate]
[2]; 30 μM in fly food
  Preliminary rescue result: adults with normal wings: 2 Adult Normal Wings Adults

## CCN(CC)C(=O)c1ccc(O)c(OC)c1 [Ethamivan]
[2]; 50 μM in fly food
  Preliminary rescue result: adults with normal wings: 1 Adult Normal Wings Adults

## Cn1cc[nH]c1=S [Methimazole]
[2]; 30 μM in fly food
  Preliminary rescue result: adults with normal wings: 1 Adult Normal Wings Adults

## CN1CCN(C2=Nc3cc(Cl)ccc3Nc3ccccc32)CC1 [Clozapine]
[1]; [3]
  Preliminary rescue result: adults with normal wings: 1 Adult Normal Wings Adults

## NC1CCN(c2c(F)cc3c(=O)c(C(=O)O)cn(C4CC4)c3c2Cl)C1 (centres unmarked) [Clinafloxacin]
[2]; 30 μM in fly food
  Preliminary rescue result: adults with normal wings: 4 Adult Normal Wings Adults

## COc1ccc2[nH]cc(CCNC(C)=O)c2c1 [Melatonin]
[2]; 50 μM in fly food
  Preliminary rescue result: adults with normal wings: 4 Adults Normal Wings

## NC1CCN(c2nc3c(cc2F)c(=O)c(C(=O)O)cn3-c2ccc(F)cc2F)C1 (centres unmarked) [Tosufloxacin Hydrochloride]
[2]; 50 μM in fly food
  Preliminary rescue result: adults with normal wings: 3 Adult Normal Wings Adults

## Clc1ccccc1C(c1ccccc1)(c1ccccc1)n1ccnc1 [Clotrimazole]
[2]; 50 μM in fly food
  Preliminary rescue result: adults with normal wings: 1 Adult Normal Wings Adults

## CN1[C@@H]2CC[C@H]1C[C@@H](OC(c1ccccc1)c1ccccc1)C2 [Benztropine Mesylate]
[2]; 30 μM in fly food
  Preliminary rescue result: adults with normal wings: 2 Adult Normal Wings Adults

## COc1cc2nc(N3CCN(C(=O)C4COc5ccccc5O4)CC3)nc(N)c2cc1OC (centres unmarked) [Doxazosin Mesylate]
[2]; 30 μM in fly food
  Preliminary rescue result: adults with normal wings: 1 Adult Normal Wings Adults

## CCN(CC)CCOC(=O)C(c1ccccc1)C1CCCCC1 (centres unmarked) [Drofenine HCl]
[2]; 30 μM in fly food
  Preliminary rescue result: adults with normal wings: 1 Adult Normal Wings Adults

## COc1ccc(C2CNC(=O)C2)cc1OC1CCCC1 (centres unmarked) [Rolipram]
[2]; 30 μM in fly food
  Preliminary rescue result: adults with normal wings: 1 Adult Normal Wings Adults

## COc1ccc2c(c1)C(=O)N(CCc1ccc(S(=O)(=O)NC(=O)NC3CCCCC3)cc1)C(=O)C2(C)C [Gliquidone]
[2]; 30 μM in fly food
  Preliminary rescue result: adults with normal wings: 7 Adult Normal Wings Adults

## COc1cc2ncnc(Nc3ccc(F)c(Cl)c3)c2cc1OCCCN1CCOCC1 [Gefitinib]
[1]; [3]
  Preliminary rescue result: adults with normal wings: 1 Adult Normal Wings Adults

## Cc1cc(CC(=O)[O-])n(C)c1C(=O)c1ccc(Cl)cc1.O.O.[Na+] [Zomepirac Na Salt]
[2]; 30 μM in fly food
  Preliminary rescue result: adults with normal wings: 3 Adult Normal Wings Adults

## O=C(c1ccccc1)c1ccc2n1CCC2C(=O)O (centres unmarked) [Ketorolac Tromethamine]
[2]; 30 μM in fly food
  Preliminary rescue result: adults with normal wings: 2 Adult Normal Wings Adults

## Cc1ccsc1/C=C/C1=NCCCN1C [Morantel Tartrate]
[2]; 50 μM in fly food
  Preliminary rescue result: adults with normal wings: 1 Adult Normal Wings Adults

## Thioproperazine Dimesylate
[2]; 50 μM in fly food
  Preliminary rescue result: adults with normal wings: 1 Adult Normal Wings Adults

## CC(C)(Oc1ccc(Cl)cc1)C(=O)O [Clofibric Acid]
[2]; 30 μM in fly food
  Preliminary rescue result: adults with normal wings: 2 Adult Normal Wings Adults

## C[N+]1(C)CCOC(O)(c2ccc(-c3ccc(C4(O)C[N+](C)(C)CCO4)cc3)cc2)C1.[Br-].[Br-] (centres unmarked) [Hemicholinium Bromide]
[1]; [3]
  Preliminary rescue result: adults with normal wings: 1 Adult Normal Wings Adults

## CCNCC(O)c1cccc(O)c1.Cl (centres unmarked) [Etilifrine Hydrochloride]
[2]; 30 μM in fly food
  Preliminary rescue result: adults with normal wings: 1 Adult Normal Wing Adults

## CC1(C)NC(=O)N(c2ccc([N+](=O)[O-])c(C(F)(F)F)c2)C1=O [Nilutamide]
[2]; 30 μM in fly food
  Preliminary rescue result: adults with normal wings: 11 Adult Normal Wings Adults

## CCN(C(C)=O)c1cccc(-c2ccnc3c(C#N)cnn23)c1 [Zaleplon]
[2]; 50 μM in fly food
  Preliminary rescue result: adults with normal wings: 1 Adult Normal Wings Adults

## CC(C)(C)NCC(O)COc1cccc2c1CCC(=O)N2 (centres unmarked) [Carteolol HCl]
[2]; 50 μM in fly food
  Preliminary rescue result: adults with normal wings: 2 Adults Normal Wings
